# Measured values from the kinase profiling compilation of Christmann-Franck et al. (2016).
# What was measured:
# Assay in all cases: radiometric filter-binding kinase assay, Kinase HotSpot
# Conditions in all cases: compound 0.5 µM; ATP 10 µM
# [1] = biological target: ACVR1B (human) (UniProt P36896)
# [2] = biological target: ADRBK2 (human) (UniProt P35626)
# [3] = biological target: AKT1 (human) (UniProt P31749)
# [4] = biological target: BLK (human) (UniProt P51451)
# [5] = biological target: BRSK2 (human) (UniProt Q8IWQ3)
# [6] = biological target: CAMK2D (human) (UniProt Q13557)
# [7] = biological target: CAMK2G (human) (UniProt Q13555)
# [8] = biological target: CDK1 CCNA2 (human) (UniProt P06493+P20248)
# [9] = biological target: DAPK1 (human) (UniProt P53355)
# [10] = biological target: DAPK3 (human) (UniProt O43293)
# [11] = biological target: EPHA2 (human) (UniProt P29317)
# [12] = biological target: EPHA4 (human) (UniProt P54764)
# [13] = biological target: EPHB3 (human) (UniProt P54753)
# [14] = biological target: EPHB4 (human) (UniProt P54760)
# [15] = biological target: FER (human) (UniProt P16591)
# [16] = biological target: FGFR4 (human) (UniProt P22455)
# FGFR4 (human), sequence (P22455 whole entry, looked up): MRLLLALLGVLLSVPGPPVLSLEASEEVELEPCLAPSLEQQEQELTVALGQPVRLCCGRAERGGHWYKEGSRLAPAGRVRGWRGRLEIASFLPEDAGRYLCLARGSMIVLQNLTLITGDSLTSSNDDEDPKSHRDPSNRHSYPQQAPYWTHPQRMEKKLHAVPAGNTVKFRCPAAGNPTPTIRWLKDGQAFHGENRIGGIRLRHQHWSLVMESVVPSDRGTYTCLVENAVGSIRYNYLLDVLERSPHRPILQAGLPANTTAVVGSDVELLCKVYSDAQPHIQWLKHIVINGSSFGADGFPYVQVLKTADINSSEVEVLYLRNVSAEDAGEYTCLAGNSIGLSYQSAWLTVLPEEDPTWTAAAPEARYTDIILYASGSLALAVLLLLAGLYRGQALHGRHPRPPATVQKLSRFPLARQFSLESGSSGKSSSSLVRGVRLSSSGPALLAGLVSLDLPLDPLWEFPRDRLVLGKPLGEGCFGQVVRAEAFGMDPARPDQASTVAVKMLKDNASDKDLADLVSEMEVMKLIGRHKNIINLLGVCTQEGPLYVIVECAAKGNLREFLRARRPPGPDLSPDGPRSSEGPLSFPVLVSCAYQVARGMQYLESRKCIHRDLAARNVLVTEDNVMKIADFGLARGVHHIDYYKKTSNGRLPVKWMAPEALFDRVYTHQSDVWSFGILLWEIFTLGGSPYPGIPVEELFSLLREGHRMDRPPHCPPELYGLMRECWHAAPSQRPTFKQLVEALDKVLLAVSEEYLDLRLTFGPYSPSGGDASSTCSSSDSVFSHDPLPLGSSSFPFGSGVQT
# [17] = test system: FLT4 (human), P35916 [Q890H]
# [18] = biological target: HIPK3 (human) (UniProt Q9H422)
# [19] = biological target: IKBKB (human) (UniProt O14920)
# IKBKB (human), sequence (O14920 whole entry, looked up): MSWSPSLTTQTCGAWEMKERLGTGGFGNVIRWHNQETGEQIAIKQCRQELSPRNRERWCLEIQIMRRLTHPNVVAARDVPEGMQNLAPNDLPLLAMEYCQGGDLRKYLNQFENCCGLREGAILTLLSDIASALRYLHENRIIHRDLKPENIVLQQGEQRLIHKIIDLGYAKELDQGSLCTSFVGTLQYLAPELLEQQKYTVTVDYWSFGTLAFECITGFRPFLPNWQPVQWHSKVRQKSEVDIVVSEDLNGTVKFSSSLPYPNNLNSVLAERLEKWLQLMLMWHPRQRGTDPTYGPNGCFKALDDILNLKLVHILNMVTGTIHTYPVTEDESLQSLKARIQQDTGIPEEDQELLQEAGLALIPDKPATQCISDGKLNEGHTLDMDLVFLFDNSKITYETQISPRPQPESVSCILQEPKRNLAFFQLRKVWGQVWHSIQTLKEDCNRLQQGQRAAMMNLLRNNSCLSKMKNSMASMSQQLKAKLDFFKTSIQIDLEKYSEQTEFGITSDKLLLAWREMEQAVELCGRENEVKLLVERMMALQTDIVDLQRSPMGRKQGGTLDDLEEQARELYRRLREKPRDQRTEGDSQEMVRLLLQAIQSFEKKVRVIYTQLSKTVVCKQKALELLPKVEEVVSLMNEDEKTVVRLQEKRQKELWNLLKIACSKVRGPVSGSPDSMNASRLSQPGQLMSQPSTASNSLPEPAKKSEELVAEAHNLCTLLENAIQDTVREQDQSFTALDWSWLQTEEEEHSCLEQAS
# [20] = biological target: KIT (human) (UniProt P10721)
# [21] = biological target: MAP3K7 TAB1 (human) (UniProt O43318+Q15750)
# [22] = biological target: MAPK12 (human) (UniProt P53778)
# [23] = biological target: MATK (human) (UniProt P42679)
# MATK (human), sequence (P42679 whole entry, looked up): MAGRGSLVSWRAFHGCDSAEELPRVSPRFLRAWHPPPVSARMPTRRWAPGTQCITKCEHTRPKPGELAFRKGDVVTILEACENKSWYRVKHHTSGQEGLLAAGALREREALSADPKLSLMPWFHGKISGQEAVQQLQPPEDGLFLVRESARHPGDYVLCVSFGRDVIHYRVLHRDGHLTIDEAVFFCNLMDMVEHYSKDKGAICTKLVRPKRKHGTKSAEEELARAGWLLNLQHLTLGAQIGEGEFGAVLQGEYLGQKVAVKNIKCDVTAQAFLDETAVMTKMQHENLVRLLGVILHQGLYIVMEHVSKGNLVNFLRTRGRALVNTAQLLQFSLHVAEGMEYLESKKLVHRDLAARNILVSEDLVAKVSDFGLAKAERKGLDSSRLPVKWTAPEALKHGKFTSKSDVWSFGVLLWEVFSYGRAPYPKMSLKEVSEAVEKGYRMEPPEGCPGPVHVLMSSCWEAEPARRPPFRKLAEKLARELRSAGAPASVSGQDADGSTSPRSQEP
# [24] = biological target: MYLK (human) (UniProt Q15746)
# [25] = biological target: NEK1 (human) (UniProt Q96PY6)
# NEK1 (human), sequence (Q96PY6 whole entry, looked up): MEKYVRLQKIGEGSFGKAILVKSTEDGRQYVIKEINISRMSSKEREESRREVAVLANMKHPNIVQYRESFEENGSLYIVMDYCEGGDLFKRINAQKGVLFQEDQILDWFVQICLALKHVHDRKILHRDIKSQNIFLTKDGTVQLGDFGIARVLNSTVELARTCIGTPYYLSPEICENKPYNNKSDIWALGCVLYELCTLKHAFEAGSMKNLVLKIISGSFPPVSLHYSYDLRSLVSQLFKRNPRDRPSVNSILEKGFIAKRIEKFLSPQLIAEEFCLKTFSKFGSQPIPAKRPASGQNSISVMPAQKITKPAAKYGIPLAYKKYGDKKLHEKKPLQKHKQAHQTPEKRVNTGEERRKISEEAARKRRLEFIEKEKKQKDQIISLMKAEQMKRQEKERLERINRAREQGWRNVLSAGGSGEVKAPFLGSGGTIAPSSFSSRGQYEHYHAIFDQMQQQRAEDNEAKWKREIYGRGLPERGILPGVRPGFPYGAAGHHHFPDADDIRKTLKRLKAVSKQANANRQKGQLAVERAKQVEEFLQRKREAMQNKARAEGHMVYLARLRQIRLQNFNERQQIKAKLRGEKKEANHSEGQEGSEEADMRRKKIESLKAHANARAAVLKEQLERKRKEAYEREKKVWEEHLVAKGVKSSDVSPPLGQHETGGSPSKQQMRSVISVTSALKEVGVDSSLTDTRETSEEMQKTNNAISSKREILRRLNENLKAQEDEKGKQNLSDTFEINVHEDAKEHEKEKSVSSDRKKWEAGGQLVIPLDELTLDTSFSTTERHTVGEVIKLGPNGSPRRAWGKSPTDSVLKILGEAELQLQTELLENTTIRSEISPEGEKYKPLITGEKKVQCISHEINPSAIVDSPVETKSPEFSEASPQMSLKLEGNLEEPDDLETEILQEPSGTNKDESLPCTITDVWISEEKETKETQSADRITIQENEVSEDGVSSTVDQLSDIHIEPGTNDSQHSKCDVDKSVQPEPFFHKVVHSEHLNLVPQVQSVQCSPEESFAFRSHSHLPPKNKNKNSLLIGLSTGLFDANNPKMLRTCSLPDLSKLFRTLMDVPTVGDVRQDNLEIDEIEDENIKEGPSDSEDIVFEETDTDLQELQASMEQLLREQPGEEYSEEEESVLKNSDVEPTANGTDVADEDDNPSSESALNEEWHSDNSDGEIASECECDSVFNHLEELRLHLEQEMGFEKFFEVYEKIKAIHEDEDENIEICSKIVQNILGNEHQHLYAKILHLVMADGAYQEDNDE
# [26] = biological target: NEK4 (human) (UniProt P51957)
# [27] = biological target: NTRK1 (human) (UniProt P04629)
# NTRK1 (human), sequence (P04629 whole entry, looked up): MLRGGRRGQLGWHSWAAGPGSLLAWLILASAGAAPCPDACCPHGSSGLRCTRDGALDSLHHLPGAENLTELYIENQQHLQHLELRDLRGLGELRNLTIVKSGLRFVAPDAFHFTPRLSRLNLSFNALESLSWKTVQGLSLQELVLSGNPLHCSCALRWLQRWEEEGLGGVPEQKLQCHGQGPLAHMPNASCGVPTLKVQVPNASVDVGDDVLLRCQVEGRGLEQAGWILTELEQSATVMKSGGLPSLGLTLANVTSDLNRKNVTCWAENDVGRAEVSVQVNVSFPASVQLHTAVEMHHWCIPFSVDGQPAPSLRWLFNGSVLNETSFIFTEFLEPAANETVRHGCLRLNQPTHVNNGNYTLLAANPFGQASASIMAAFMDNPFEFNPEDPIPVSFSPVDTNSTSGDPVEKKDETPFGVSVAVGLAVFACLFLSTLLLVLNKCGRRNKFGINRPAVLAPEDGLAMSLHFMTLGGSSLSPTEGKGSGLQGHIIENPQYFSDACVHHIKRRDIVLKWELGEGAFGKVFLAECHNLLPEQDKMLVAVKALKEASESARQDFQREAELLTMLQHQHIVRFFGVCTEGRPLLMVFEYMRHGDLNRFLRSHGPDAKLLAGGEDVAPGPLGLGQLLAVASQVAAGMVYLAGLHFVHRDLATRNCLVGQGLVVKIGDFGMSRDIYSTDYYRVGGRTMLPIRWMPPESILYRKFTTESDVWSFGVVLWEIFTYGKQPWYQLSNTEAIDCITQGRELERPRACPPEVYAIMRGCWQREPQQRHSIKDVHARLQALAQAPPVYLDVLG
# [28] = biological target: PAK1 (human) (UniProt Q13153)
# [29] = biological target: PIM2 (human) (UniProt Q9P1W9)
# PIM2 (human), sequence (Q9P1W9 whole entry, looked up): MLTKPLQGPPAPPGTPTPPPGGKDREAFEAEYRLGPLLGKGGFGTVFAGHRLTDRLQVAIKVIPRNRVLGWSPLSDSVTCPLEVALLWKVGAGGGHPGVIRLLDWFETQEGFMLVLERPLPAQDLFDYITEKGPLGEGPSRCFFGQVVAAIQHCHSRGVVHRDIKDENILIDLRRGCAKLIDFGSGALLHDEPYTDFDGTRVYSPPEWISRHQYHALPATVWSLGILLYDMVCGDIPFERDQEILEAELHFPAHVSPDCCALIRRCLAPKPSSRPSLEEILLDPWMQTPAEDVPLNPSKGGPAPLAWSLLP
# [30] = biological target: PRKCG (human) (UniProt P05129)
# [31] = biological target: ROCK2 (human) (UniProt O75116)
# [32] = biological target: RPS6KA6 KD1 KD2 (human) (UniProt Q9UK32)
# [33] = biological target: SLK (human) (UniProt Q9H2G2)
# [34] = biological target: STK39 (human) (UniProt Q9UEW8)
# [35] = biological target: TEC (human) (UniProt P42680)
# [36] = biological target: TEK (human) (UniProt Q02763)
# [37] = biological target: ULK1 (human) (UniProt O75385)
# [38] = biological target: CDK2 CCNE1 (human) (UniProt P24941+P24864)
# [39] = biological target: INSR (human) (UniProt P06213)
# [40] = biological target: MST1R (human) (UniProt Q04912)
# [41] = biological target: RET (human) (UniProt P07949)
# [42] = biological target: RPS6KA3 KD1 KD2 (human) (UniProt P51812)
# ACVR1B (human), sequence (P36896 whole entry, looked up): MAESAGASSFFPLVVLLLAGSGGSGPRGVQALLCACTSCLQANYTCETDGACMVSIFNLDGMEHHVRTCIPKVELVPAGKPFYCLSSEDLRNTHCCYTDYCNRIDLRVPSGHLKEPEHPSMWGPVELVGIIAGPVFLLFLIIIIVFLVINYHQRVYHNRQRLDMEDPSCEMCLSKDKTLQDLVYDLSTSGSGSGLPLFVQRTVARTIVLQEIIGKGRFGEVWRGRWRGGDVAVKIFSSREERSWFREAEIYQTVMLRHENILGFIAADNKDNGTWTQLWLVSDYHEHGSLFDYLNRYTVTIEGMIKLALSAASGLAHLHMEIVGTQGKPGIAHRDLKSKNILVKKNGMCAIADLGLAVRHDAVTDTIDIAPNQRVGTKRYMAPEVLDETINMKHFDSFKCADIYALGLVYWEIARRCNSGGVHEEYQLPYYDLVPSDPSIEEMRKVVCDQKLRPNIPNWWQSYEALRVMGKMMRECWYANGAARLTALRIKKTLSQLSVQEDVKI
compound,measurement,setting,value
COc1ccc2c(c1)/C(=C/c1cnc[nH]1)C(O)=N2,residual activity,[1],105%
same,residual activity,[2],101%
same,residual activity,[3],100%
same,residual activity,[4],90.3%
same,residual activity,[5],61.7%
same,residual activity,[6],78.8%
same,residual activity,[7],94.6%
same,residual activity,[8],43.7%
same,residual activity,[9],105%
same,residual activity,[10],101%
same,residual activity,[11],98.4%
same,residual activity,[12],98.2%
same,residual activity,[13],98.8%
same,residual activity,[14],91.1%
same,residual activity,[15],88.4%
same,residual activity,[16],85.8%
same,residual activity,[17],66.4%
same,residual activity,[18],101%
same,residual activity,[19],94.9%
same,residual activity,[20],84.1%
same,residual activity,[21],63.7%
same,residual activity,[22],95.5%
same,residual activity,[23],92.3%
same,residual activity,[24],80.9%
same,residual activity,[25],84.4%
same,residual activity,[26],96%
same,residual activity,[27],61.4%
same,residual activity,[28],97.8%
same,residual activity,[29],97.2%
same,residual activity,[30],95.2%
same,residual activity,[31],87.4%
same,residual activity,[32],48.8%
same,residual activity,[33],81.9%
same,residual activity,[34],86.1%
same,residual activity,[35],91.6%
same,residual activity,[36],98.4%
same,residual activity,[37],53.4%
C[C@@H]1CCN(C(=O)CC#N)C[C@@H]1N(C)c1ncnc2[nH]ccc12,residual activity,[1],99.8%
same,residual activity,[2],99.2%
same,residual activity,[3],90.3%
same,residual activity,[5],86.9%
same,residual activity,[6],98.2%
same,residual activity,[7],127%
same,residual activity,[8],95.9%
same,residual activity,[38],90.7%
same,residual activity,[9],109%
same,residual activity,[10],106%
same,residual activity,[11],95.8%
same,residual activity,[12],99.1%
same,residual activity,[13],54.9%
same,residual activity,[14],89.8%
same,residual activity,[15],104%
same,residual activity,[16],94.3%
same,residual activity,[17],97.5%
same,residual activity,[18],100%
same,residual activity,[19],88.2%
same,residual activity,[39],101%
same,residual activity,[20],98.9%
same,residual activity,[21],87.5%
same,residual activity,[23],66.9%
same,residual activity,[40],102%
same,residual activity,[24],89.9%
same,residual activity,[25],84.6%
same,residual activity,[26],96%
same,residual activity,[27],94.1%
same,residual activity,[28],108%
same,residual activity,[29],116%
same,residual activity,[30],90.6%
same,residual activity,[41],92.4%
same,residual activity,[31],69.9%
same,residual activity,[42],97%
same,residual activity,[32],98.1%
same,residual activity,[33],89.2%
same,residual activity,[34],95.1%
same,residual activity,[35],95.4%
same,residual activity,[36],96.6%
same,residual activity,[37],83%
CO[C@@H]1[C@H](N(C)C(=O)c2ccccc2)C[C@H]2O[C@]1(C)n1c3ccccc3c3c4c(c5c6ccccc6n2c5c31)C(=O)NC4,residual activity,[1],102%
same,residual activity,[2],97.5%
same,residual activity,[3],81.3%
same,residual activity,[5],16.4%
same,residual activity,[6],17.3%
same,residual activity,[7],43.9%
same,residual activity,[38],81.2%
same,residual activity,[9],84%
same,residual activity,[10],82.6%
same,residual activity,[11],92.3%
same,residual activity,[12],96.9%
same,residual activity,[13],90.5%
same,residual activity,[14],110%
same,residual activity,[15],22.4%
same,residual activity,[16],84.2%
same,residual activity,[17],10.9%
same,residual activity,[18],93.3%
same,residual activity,[19],97.9%
same,residual activity,[39],106%
same,residual activity,[22],95.8%
same,residual activity,[23],113%
same,residual activity,[40],101%
same,residual activity,[24],27.3%
same,residual activity,[25],66.2%
same,residual activity,[26],97.6%
same,residual activity,[27],5.85%
same,residual activity,[28],35.1%
same,residual activity,[31],80.9%
same,residual activity,[42],3.19%
same,residual activity,[32],1.15%
same,residual activity,[33],30.5%
same,residual activity,[34],96%
same,residual activity,[35],106%
same,residual activity,[37],99.2%
Cn1c2ccccc2c2c3c(c4c5ccccc5n(CCC#N)c4c21)CNC3=O,residual activity,[1],115%
same,residual activity,[2],106%
same,residual activity,[3],108%
same,residual activity,[5],26.3%
same,residual activity,[6],20.3%
same,residual activity,[7],21.9%
same,residual activity,[8],55.5%
same,residual activity,[38],27.8%
same,residual activity,[9],102%
same,residual activity,[10],93.6%
same,residual activity,[11],92.5%
same,residual activity,[12],90.4%
same,residual activity,[13],87.2%
same,residual activity,[14],96.3%
same,residual activity,[15],5.9%
same,residual activity,[16],86.5%
same,residual activity,[17],38.2%
same,residual activity,[18],29.8%
same,residual activity,[19],90.4%
same,residual activity,[39],89.3%
same,residual activity,[20],96.9%
same,residual activity,[21],25.4%
same,residual activity,[22],85.8%
same,residual activity,[23],100%
same,residual activity,[40],111%
same,residual activity,[24],24.6%
same,residual activity,[25],62.9%
same,residual activity,[26],49.1%
same,residual activity,[27],1.64%
same,residual activity,[28],83.3%
same,residual activity,[29],101%
same,residual activity,[30],72.1%
same,residual activity,[41],0.516%
same,residual activity,[31],48.5%
same,residual activity,[42],5.93%
same,residual activity,[32],4.2%
same,residual activity,[33],34.1%
same,residual activity,[34],96.7%
same,residual activity,[35],96.4%
same,residual activity,[36],104%
same,residual activity,[37],106%
O=C1C(Cl)=C(N2C(=O)CCC2=O)C(=O)c2ccccc21,residual activity,[1],106%
same,residual activity,[2],103%
same,residual activity,[3],103%
same,residual activity,[5],100%
same,residual activity,[6],109%
same,residual activity,[7],104%
same,residual activity,[8],99.8%
same,residual activity,[38],90.3%
same,residual activity,[9],101%
same,residual activity,[10],114%
same,residual activity,[11],107%
same,residual activity,[12],101%
same,residual activity,[13],97%
same,residual activity,[14],98.7%
same,residual activity,[15],103%
same,residual activity,[16],105%
same,residual activity,[17],102%
same,residual activity,[18],112%
same,residual activity,[19],101%
same,residual activity,[39],105%
same,residual activity,[20],84.7%
same,residual activity,[21],99.5%
same,residual activity,[22],100%
same,residual activity,[23],88%
same,residual activity,[40],94.5%
same,residual activity,[24],99.4%
same,residual activity,[25],90%
same,residual activity,[26],99.6%
same,residual activity,[27],97%
same,residual activity,[28],96.3%
same,residual activity,[29],123%
same,residual activity,[30],97.5%
same,residual activity,[41],98%
same,residual activity,[31],91.5%
same,residual activity,[42],101%
same,residual activity,[32],99.9%
same,residual activity,[33],104%
same,residual activity,[34],97.3%
same,residual activity,[35],101%
same,residual activity,[36],96.7%
same,residual activity,[37],107%
